pEC50, pIC50: −log10 of the molar value. Each block holds one compound with its values, some of them ahead of it.
Assays:
[1] = test system: Rat basophilic leukemia (RBL) cells; assay: LTB4 secretion assay in RBL (rat basophilic leukemia cells); assay type: cell-based; details: Rattus norvegicus, RBL
Outline: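 LTB4 released into supernatant was measured by EIA after 10 min at 37 °C with arachidonic acid (2.5 uM final) and calcium ionophore A23187 (5 uM final). Before stimulation, cells plated 2×10^4/well overnight received compound doses (5 nM to 100 uM) for 15 min in 0.5% FBS medium.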

human 5-LOX = target: T1, human 5-LOX (Homo sapiens, UniProt P09917); assay: 5-LOX enzyme activity, fluorescence method (5-HPETE, H2DCFDA); assay type: biochemical; details: read-out: 5-LO (IC50)
T1 construct: purchased Cayman 60402; host or cells: insect cells (lysate)
T1 sequence (P09917 1-674): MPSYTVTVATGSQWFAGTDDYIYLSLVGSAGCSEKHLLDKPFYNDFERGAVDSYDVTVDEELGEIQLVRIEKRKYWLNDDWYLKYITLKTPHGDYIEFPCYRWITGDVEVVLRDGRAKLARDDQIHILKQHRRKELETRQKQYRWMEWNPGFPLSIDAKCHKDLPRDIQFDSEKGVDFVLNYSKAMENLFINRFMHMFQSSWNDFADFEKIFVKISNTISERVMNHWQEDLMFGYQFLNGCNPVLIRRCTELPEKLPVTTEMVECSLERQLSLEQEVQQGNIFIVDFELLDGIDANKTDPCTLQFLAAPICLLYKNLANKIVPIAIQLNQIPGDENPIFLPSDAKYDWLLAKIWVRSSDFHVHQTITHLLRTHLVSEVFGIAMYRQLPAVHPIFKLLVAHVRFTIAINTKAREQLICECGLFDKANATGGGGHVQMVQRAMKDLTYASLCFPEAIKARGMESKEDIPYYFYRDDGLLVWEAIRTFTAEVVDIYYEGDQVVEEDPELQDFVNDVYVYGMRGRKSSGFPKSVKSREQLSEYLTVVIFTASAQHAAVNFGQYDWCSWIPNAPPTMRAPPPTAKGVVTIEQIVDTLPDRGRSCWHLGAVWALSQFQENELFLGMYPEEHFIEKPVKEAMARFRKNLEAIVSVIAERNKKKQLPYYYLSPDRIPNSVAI
Outline: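 Fluorescence-based read-out, run entirely at room temperature. Enzyme mixture was exposed to a dose range of compound from 0.5 nM to 10 uM for 5 min before ATP and arachidonic acid were added to final levels of 100 uM and 3 uM.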

Structure (SMILES): Cn1c(NCc2ccc(Oc3ncc(Cl)cn3)cn2)nc2ccc(NC3COC3)cc21 [Compound 355]
pEC50 [1]: < 4.70
pIC50 (human 5-LOX): 5.00 to 6.00

Structure (SMILES): Cn1c(NCc2ccc(Oc3nc4ccccc4n3C)cc2)nc2ccc(N)cc21 [Compound 356]
pEC50 [1]: 4.70 to 5.00
pIC50 (human 5-LOX): > 6.00

Structure (SMILES): Cn1ccnc1CNc1ccc2nc(NCc3ccc(Oc4ncc(Cl)cn4)cc3)n(C)c2c1 [Compound 359]
pEC50 [1]: > 5.00
pIC50 (human 5-LOX): > 6.00

Structure (SMILES): Cn1c(NCc2ccc(Oc3ncc(Cl)cn3)cc2)nc2ccc(NCc3ncccn3)cc21 [Compound 365]
pEC50 [1]: > 5.00
pIC50 (human 5-LOX): > 6.00

Structure (SMILES): Cn1c(NCc2ccc(Oc3ccncn3)cc2)nc2ccc(N)cc21 [Compound 370]
pEC50 [1]: 4.70 to 5.00
pIC50 (human 5-LOX): > 6.00

Structure (SMILES): Cn1c(NCc2ccc(Oc3ncc(Cl)cn3)cc2)nc2ccc(NCC(O)c3ccc(F)cc3)cc21 (stereo not shown) [Compound 372]
pEC50 [1]: > 5.00
pIC50 (human 5-LOX): > 6.00

Structure (SMILES): Cn1c(NCc2ccc(Oc3ccnc4cc(Cl)ccc34)cc2)nc2ccc(N)cc21 [Compound 375]
pEC50 [1]: > 5.00
pIC50 (human 5-LOX): > 6.00

Structure (SMILES): Cn1c(NCc2ccc(Oc3ncc(N)cn3)cc2)nc2ccc(N)cc21 [Compound 376]
pEC50 [1]: < 4.70
pIC50 (human 5-LOX): > 6.00

Structure (SMILES): Cn1c(NCc2ccc(Oc3ccc(OC(F)(F)F)cn3)cc2)nc2ccc(N)cc21 [Compound 377]
pEC50 [1]: > 5.00
pIC50 (human 5-LOX): > 6.00

Structure (SMILES): Cn1c(NCc2ccc(Oc3ncc(Cl)cn3)cc2)nc2ccc(NCCN3CCOCC3)cc21 [Compound 379]
pEC50 [1]: > 5.00
pIC50 (human 5-LOX): > 6.00

Structure (SMILES): Cn1c(NCc2ccc(Oc3ncc(Cl)cn3)cc2F)nc2ccc(N)cc21 [Compound 380]
pEC50 [1]: > 5.00
pIC50 (human 5-LOX): > 6.00

Structure (SMILES): Cn1c(NCc2ccc(Oc3ccc4cc(F)ccc4n3)cc2)nc2ccc(N)cc21 [Compound 382]
pEC50 [1]: > 5.00
pIC50 (human 5-LOX): > 6.00

Structure (SMILES): Cn1c(NCc2ccc(Oc3ccnc4cc(Cl)ccc34)cc2)nc2ccc(NC3COC3)cc21 [Compound 384]
pEC50 [1]: > 5.00
pIC50 (human 5-LOX): > 6.00

Structure (SMILES): Cc1cc(Oc2ncc(Cl)cn2)cc(C)c1CNc1nc2ccc(N)cc2n1C [Compound 385]
pEC50 [1]: 4.70 to 5.00
pIC50 (human 5-LOX): > 6.00

Structure (SMILES): Cn1c(NCc2ccc(Oc3ncc(Cl)cn3)cc2)nc2ccc(NC3C[S+]([O-])C3)cc21 (stereo not shown) [Compound 386]
pEC50 [1]: < 4.70
pIC50 (human 5-LOX): 5.00 to 6.00

Structure (SMILES): Cn1c(NCc2ccc(Oc3ccnc4c(Cl)cccc34)cc2)nc2ccc(NC3COC3)cc21 [Compound 388]
pEC50 [1]: 4.70 to 5.00
pIC50 (human 5-LOX): > 6.00

Structure (SMILES): Cn1c(NCc2ccc(Oc3ccc4cc(Cl)ccc4n3)cc2)nc2ccc(N)cc21 [Compound 389]
pEC50 [1]: > 5.00
pIC50 (human 5-LOX): > 6.00

Structure (SMILES): Cn1c(NCc2ccc(Oc3ncc(Cl)c(C4CC4)n3)cc2)nc2ccc(N)cc21 [Compound 397]
pEC50 [1]: > 5.00
pIC50 (human 5-LOX): > 6.00

Structure (SMILES): Cn1c(NCc2ccc(Oc3ncc(Cl)c(C4CC4)n3)cc2)nc2ccc(NC3COC3)cc21 [Compound 398]
pEC50 [1]: > 5.00
pIC50 (human 5-LOX): > 6.00

Structure (SMILES): Cn1c(NCc2ccc(Oc3ncc(Cl)c4ccccc34)cc2)nc2ccc(N)cc21 [Compound 399]
pEC50 [1]: > 5.00
pIC50 (human 5-LOX): > 6.00

Structure (SMILES): Cn1c(NCc2ccc(Oc3ncc(Cl)c4ccccc34)cc2)nc2ccc(NC3COC3)cc21 [Compound 400]
pEC50 [1]: > 5.00
pIC50 (human 5-LOX): > 6.00

Structure (SMILES): Cn1c(NCc2ccc(Oc3ccc(Cl)cn3)cc2)nc2ccc(NC3CNC3)cc21 [Compound 401]
pEC50 [1]: > 5.00
pIC50 (human 5-LOX): > 6.00

Structure (SMILES): Cn1c(NCc2ccc(Oc3nc4cc(Cl)ccc4o3)cc2)nc2ccc(NC3COC3)cc21 [Compound 403]
pEC50 [1]: > 5.00
pIC50 (human 5-LOX): > 6.00

Structure (SMILES): Cn1c(NCc2ccc(Oc3ncc4cc(Cl)ccc4n3)cc2)nc2ccc(N)cc21 [Compound 405]
pEC50 [1]: > 5.00
pIC50 (human 5-LOX): > 6.00

Structure (SMILES): Cn1c(NCc2ccc(Oc3ncc(Cl)cn3)cc2)nc2ccc(NC3CNC3)cc21 [Compound 407]
pEC50 [1]: > 5.00
pIC50 (human 5-LOX): > 6.00

Structure (SMILES): Cn1c(NCc2ccc(Oc3ncc(OC(F)(F)F)cn3)cc2)nc2ccc(N)cc21 [Compound 410]
pEC50 [1]: > 5.00
pIC50 (human 5-LOX): > 6.00

Structure (SMILES): Cc1cc(CNc2nc3ccc(N)cc3n2C)cc(C)c1Oc1ncc(Cl)cn1 [Compound 411]
pEC50 [1]: < 4.70
pIC50 (human 5-LOX): > 6.00

Structure (SMILES): Cn1c(NCc2ccc(Oc3ccc4cccc(Cl)c4n3)cc2)nc2ccc(NC3COC3)cc21 [Compound 422]
pEC50 [1]: > 5.00
pIC50 (human 5-LOX): > 6.00

Structure (SMILES): Cn1c(NCc2ccc(Oc3cnc4cc(Cl)ccc4n3)cc2)nc2ccc(NC3COC3)cc21 [Compound 427]
pEC50 [1]: > 5.00
pIC50 (human 5-LOX): > 6.00

Structure (SMILES): Cn1c(NCc2ccc(Oc3nc4ccc(Cl)cc4n3C)cc2)nc2ccc(N)cc21 [Compound 428]
pEC50 [1]: > 5.00
pIC50 (human 5-LOX): > 6.00

Structure (SMILES): Cn1c(NCc2ccc(Oc3ncc(Cl)cn3)cc2)nc2ccc(NC(N)=O)cc21 [Compound 429]
pEC50 [1]: 4.70 to 5.00
pIC50 (human 5-LOX): < 5.00

Structure (SMILES): Cn1c(NCc2cc(Cl)c(Oc3ncc(Cl)cn3)cc2Cl)nc2ccc(N)cc21 [Compound 432]
pEC50 [1]: > 5.00
pIC50 (human 5-LOX): > 6.00

Structure (SMILES): Cn1c(NCc2ccc(Oc3ncc4c(Cl)cccc4n3)cc2)nc2ccc(N)cc21 [Compound 434]
pEC50 [1]: > 5.00
pIC50 (human 5-LOX): > 6.00

More lines, now with the values ahead:

pEC50 [1]: > 5.00
pIC50 (human 5-LOX): > 6.00
Structure (SMILES): Cn1c(NCc2ccc(Oc3ncc(Br)cn3)cc2)nc2ccc(N)cc21 [Compound 361]

pEC50 [1]: < 4.70
pIC50 (human 5-LOX): > 6.00
Structure (SMILES): Cn1c(NCc2ccc(Oc3nccc(C(F)(F)F)n3)cc2)nc2ccc(N)cc21 [Compound 363]

pEC50 [1]: > 5.00
pIC50 (human 5-LOX): > 6.00
Structure (SMILES): Cn1c(NCc2ccc(Oc3ncc(Cl)cn3)cc2)nc2ccc(NC3CSC3)cc21 [Compound 366]

pEC50 [1]: > 5.00
pIC50 (human 5-LOX): > 6.00
Structure (SMILES): Cn1c(NCc2ccc(Oc3ccnc4c(Cl)cccc34)cc2)nc2ccc(N)cc21 [Compound 387]

pEC50 [1]: > 5.00
pIC50 (human 5-LOX): > 6.00
Structure (SMILES): Cn1c(NCc2ccc(Oc3ccc4cc(Cl)ccc4n3)cc2)nc2ccc(NC3COC3)cc21 [Compound 390]

pEC50 [1]: > 5.00
pIC50 (human 5-LOX): > 6.00
Structure (SMILES): Cn1c(NCc2ccc(Oc3ncc(Cl)cn3)c(Cl)c2)nc2ccc(N)cc21 [Compound 391]

pEC50 [1]: > 5.00
pIC50 (human 5-LOX): > 6.00
Structure (SMILES): Cn1c(NCc2ccc(Oc3cc(Cl)ncn3)cc2)nc2ccc(N)cc21 [Compound 393]

pEC50 [1]: > 5.00
pIC50 (human 5-LOX): > 6.00
Structure (SMILES): CC(C)c1cc(CNc2nc3ccc(N)cc3n2C)ccc1Oc1ncc(Cl)cn1 [Compound 395]

pEC50 [1]: > 5.00
pIC50 (human 5-LOX): > 6.00
Structure (SMILES): CC(C)c1cc(CNc2nc3ccc(NC4COC4)cc3n2C)ccc1Oc1ncc(Cl)cn1 [Compound 396]

pEC50 [1]: > 5.00
pIC50 (human 5-LOX): > 6.00
Structure (SMILES): Cn1c(NCc2ccc(Oc3nc4cc(Cl)ccc4o3)cc2)nc2ccc(N)cc21 [Compound 402]

pEC50 [1]: < 4.70
pIC50 (human 5-LOX): > 6.00
Structure (SMILES): Cn1c(NCc2ccc(Oc3ccc(Cl)cn3)cc2)nc2ccc(NC3CN(C(N)=O)C3)cc21 [Compound 404]

pEC50 [1]: > 5.00
pIC50 (human 5-LOX): > 6.00
Structure (SMILES): Cn1c(NCc2ccc(Oc3ncc4cc(Cl)ccc4n3)cc2)nc2ccc(NC3COC3)cc21 [Compound 406]

pEC50 [1]: < 4.70
pIC50 (human 5-LOX): > 6.00
Structure (SMILES): Cn1c(NCc2ccc(Oc3ncc(Cl)cn3)cc2)nc2ccc(NC3CN(C(N)=O)C3)cc21 [Compound 408]

pEC50 [1]: > 5.00
pIC50 (human 5-LOX): > 6.00
Structure (SMILES): Cn1c(NCc2ccc(Oc3ccc4ccc(Cl)cc4n3)cc2)nc2ccc(N)cc21 [Compound 419]

pEC50 [1]: > 5.00
pIC50 (human 5-LOX): > 6.00
Structure (SMILES): Cn1c(NCc2ccc(Oc3ccc4ccc(Cl)cc4n3)cc2)nc2ccc(NC3COC3)cc21 [Compound 420]

pEC50 [1]: > 5.00
pIC50 (human 5-LOX): > 6.00
Structure (SMILES): Cn1c(NCc2ccc(Oc3ccc4cccc(Cl)c4n3)cc2)nc2ccc(N)cc21 [Compound 421]

pEC50 [1]: > 5.00
pIC50 (human 5-LOX): > 6.00
Structure (SMILES): Cn1c(NCc2ccc(Oc3ccc4c(Cl)cccc4n3)cc2)nc2ccc(N)cc21 [Compound 424]
